Entries after “also recorded” stand apart in the source; their conditions may differ.
Legend:
Assay type in all cases: cell-based, human
CI-deficient fibroblasts = assay: Cellular morphology by phase-contrast microscopy; details: vs untreated
From the text: (§1) Fibroblasts in tissue culture were visualized by phase-contrast microscopy with a Leica DM IRB microscope at ×10 magnification, and images were taken with the Hamamatsu ORCA-ER camera.

[1] = test system: COX10-deficient fibroblasts; assay: Cellular morphology by phase-contrast microscopy; details: vs untreated
From the text: as §1

[2] = test system: NGLY1 deficient fibroblasts; assay: Cellular morphology by phase-contrast microscopy; details: NGLY-1 deficient fibroblasts; vs untreated
From the text: as §1

[3] = test system: POLG-deficient fibroblasts; assay: Cellular morphology by phase-contrast microscopy; details: vs untreated
From the text: as §1

[4] = test system: SURF1-deficient fibroblasts; assay: Cellular morphology by phase-contrast microscopy; details: vs DMSO
From the text: as §1

pAMPK [5] = assay: pAMPK western blot after siRNA knockdown of PRKAA1 in COX10 deficient fibroblasts; details: siAMPK+PT1 compared to siCNT+PT1
Procedure: Methods: Western blotting was performed to identify pAMPK levels in cells treated with PT1. Cells were lysed with RIPA buffer supplemented with Na-Orthovanadate, PMSF, and Protease Inhibitor cocktail. Whole cell extracts were fractionated by SDS-PAGE and transferred to a polyvinylidene difluoride membrane using a transfer apparatus according to the manufacturer's protocols (Bio-Rad). After incubation with 5% nonfat milk in TBST (10 mM Tris, pH 8.0, 150 mM NaCl, 0.5% Tween 20) for 60 min, the membrane was washed once with TBST and incubated with antibodies against AMPK (1:1,000), pAMPK (1:1,000), actin (1:10,000) at 4° C. overnight. […]
To test whether the cellular response to PT1 is a result of AMPK activation itself, or is merely a result of nonspecific interactions, an siRNA knockdown strategy was used. siRNA for PRKAA1 (s101) and a negative control (Life Technologies) were incubated with Hiperfect reagent (Qiagen) in media containing DMEM, 1% Penicillin-Streptomycin (10,000 U/mL) (Life Technologies), 1% glutaMAX (Life Technologies) but no serum and allowed to complex for 10 min at room temperature. […] At the end of the incubation period, the cells were analyzed for levels of AMPK and pAMPK by western blot analysis (see protocol above) or incubated for six additional days with PT1 (or DMSO as untreated control) and assessed for viability by Calcein AM. […]

[6] = test system: COX10 deficient fibroblasts; assay: Cell viability (Calcein AM) in siRNA knockdown study; details: PT1 alone and siCNT+PT1 vs DMSO and siAMPK+PT1; FIG. 4B
Procedure: Methods: Cell growth was measured by a fluorometric method using Calcein AM (Anaspec). Mitochondrial stressor media was removed, wells washed with PBS and then incubated with 500 ul/well of 800 nM Calcein AM in PBS for 30 min at 37 C, 5% CO2. Cell viability was measured by values obtained using a 485 nm excitation with the Flouroskan Ascent Microplate Fluorometer (Thermo Scientific).
To test whether the cellular response to PT1 is a result of AMPK activation itself, or is merely a result of nonspecific interactions, an siRNA knockdown strategy was used. siRNA for PRKAA1 (s101) and a negative control (Life Technologies) were incubated with Hiperfect reagent (Qiagen) in media containing DMEM, 1% Penicillin-Streptomycin (10,000 U/mL) (Life Technologies), 1% glutaMAX (Life Technologies) but no serum and allowed to complex for 10 min at room temperature. […] At the end of the incubation period, the cells were analyzed for levels of AMPK and pAMPK by western blot analysis (see protocol above) or incubated for six additional days with PT1 (or DMSO as untreated control) and assessed for viability by Calcein AM. COX10-deficient fibroblasts were treated with PT1 and either siAMPK or siCNT, and responses were evaluated for pAMPK protein expression by western blotting (FIG. 4A), cell viability by Calcein AM fluorescence assay (FIG. 4B), and cell morphology by phase contrast microscopy (FIGS. 4C-4F)

pAMPK [7] = assay: pAMPK western blot time course in SURF1 deficient fibroblasts
Procedure: Methods: Western blotting was performed to identify pAMPK levels in cells treated with PT1. Cells were lysed with RIPA buffer supplemented with Na-Orthovanadate, PMSF, and Protease Inhibitor cocktail. Whole cell extracts were fractionated by SDS-PAGE and transferred to a polyvinylidene difluoride membrane using a transfer apparatus according to the manufacturer's protocols (Bio-Rad). After incubation with 5% nonfat milk in TBST (10 mM Tris, pH 8.0, 150 mM NaCl, 0.5% Tween 20) for 60 min, the membrane was washed once with TBST and incubated with antibodies against AMPK (1:1,000), pAMPK (1:1,000), actin (1:10,000) at 4° C. overnight. Membranes were washed three times for 5 min and incubated with a 1:10,000 dilution of horseradish peroxidase-conjugated anti-mouse or anti-rabbit antibodies for 2 h. Blots were washed with TBST three times and developed with the ECL system (Thermo Scientific) according to the manufacturer's protocols.

PGC-1α = assay: Gene expression after PT1 treatment; details: 48 hr treatment with PT1; FIG. 5B
[8] = test system: NGLY1 deficient fibroblasts; assay: ATP levels, CellTiter-Glo ATP Assay; details: PT1 48 hrs vs DMSO
Procedure: (§2) Methods: SURF1, POLG, and NGLY1 patient cells were supplemented with PT1 or DMSO (untreated control) for 48 hrs (n=3) and ATP levels measured by the CellTiter-Glo ATP Assay or for 72 hrs (n=3) and ROS levels were measured by the CellROX Deep Red Flow Cytometry Assay. Results were normalized to total protein concentration. Data are represented as the mean±standard error of the mean. Statistical significance was measured to p<0.05.

[9] = test system: POLG deficient fibroblasts; assay: ATP levels, CellTiter-Glo ATP Assay; details: PT1 48 hrs vs DMSO
Procedure: as §2

[10] = test system: SURF1 deficient fibroblasts; assay: ATP levels, CellTiter-Glo ATP Assay; details: PT1 48 hrs vs DMSO
Procedure: as §2

[11] = test system: NGLY1 deficient fibroblasts; assay: ROS levels, CellROX Deep Red Flow Cytometry Assay; details: PT1 72 hrs vs DMSO
Procedure: as §2

[12] = test system: POLG deficient fibroblasts; assay: ROS levels, CellROX Deep Red Flow Cytometry Assay; details: PT1 72 hrs vs DMSO
Procedure: as §2

[13] = test system: SURF1 deficient fibroblasts; assay: ROS levels, CellROX Deep Red Flow Cytometry Assay; details: PT1 72 hrs vs DMSO
Procedure: as §2

Cc1cc(-c2ccc(C=C3SC(=S)N(c4ccc(Cl)c(C(=O)O)c4)C3=O)o2)c([N+](=O)[O-])cc1C [PT1]
cellular morphology (CI-deficient fibroblasts): cell morphology improved
cellular morphology [1]: cell morphology improved
cellular morphology [2]: cell morphology improved
cellular morphology [3]: cell morphology improved
cellular morphology [4]: improved cellular morphology; also recorded: cell morphology improved
decrease in pAMPK levels (pAMPK [5]): 63%
cell viability [6]: increased viability
time of peak pAMPK levels post PT1 treatment (pAMPK [7]): 24 hours
time of return of pAMPK levels to baseline (pAMPK [7]): 48 hours
time by which pAMPK levels increase post PT1 treatment (pAMPK [7]; pAMPK normalized to actin): ≤ 2 hours
increase in expression of PGC-1α (PGC-1α): 2.4 fold
increase in ATP production / content [8]: 40%
increase in ATP production / content [9]: 36%
increase in ATP production / content [10]: 35%
reduction in ROS levels [11]: 18%
reduction in ROS levels [12]: 15%
reduction in ROS levels [13]: 10%

Source: patent US12377077B2, “Methods and formulations to treat mitochondrial dysfunction” (The Board of Trustees of the Leland Stanford Junior …, priority 2018, dated 2025)
